We go through 2 compounds from US8731655B2, “Compounds containing acyclic N-N bonds for phototherapy” (Mallinckrodt LLC, priority 2009, dated 2014).

For data set [1], the system named is human myeloid leukemia U937 cell line. Put plainly: Cell viability upon exposure of tumor cells to photosensitizer and light. The class given is cell-based. The note with it: for cell viability result in words: U937 cells exposed to light in presence of photosensitizer, various concentrations and durations; for percent viability: U937 cells. As to the method:
(§1) Abstract: A class of Type 1 photosensitizer containing fragile —N—N— bonds that produce reactive intermediates upon photoexcitation was prepared and tested in vitro. U937 leukemia cells were incubated with the photosensitizer at various concentrations and irradiated with 325-425 nm light at various durations.
(§2) Cell Viability Measurements: A general procedure is carried out for measuring cell viability upon exposure of tumor cells to a photosensitizer having Formula (FX23) or (FX25) and light. The photosensitizer (FX23) has an absorption maxima (λmax) of 385 nm. The cell viability analysis is carried out using human myeloid leukemia U937 cell line by the standard WST-1 assay. In this procedure, U397 Luekemia cells (0.5×10^6) are plated in standard T-25 cell culture flasks, and are exposed to four controls and a series of test conditions corresponding to a range of photosensitizer concentrations.
(§3) The photosensitizers having formula (FX23) and (FX25) are dissolved in DMSO at an initial concentration of about 8 mM and diluted with water to the final desired value such that amount of DMSO exposed to the cells is below 0.5%. The cells are incubated at 37° C. with various concentrations the photosensitizer for about 30 minutes prior to the exposure of light. […] It should be noted that in the present study, the light source is not optimized with respect to power and wavelength. The viability of cells is assessed after 24 hours following light exposure. The light source is a B-100SP High Intensity Lamp from UVP. Once exposure is complete, cells are processed to determine percent viability using Hank's Balanced Salt Solution (HBSS), Trypan blue stain, and a hemacytometer to count live and dead cells. The number of viable cells is determined and percent viability is determined

Data set [2] is described as follows: Absorption maxima of photosensitizer. The class given is physicochemical.
A short description of data set [3]: Cell viability upon exposure of tumor cells to photosensitizer and light. The class given is cell-based, human. The following applies: human, U937 myeloid leukemia cells; U937 cells, 10.0 μM photosensitizer, no light exposure; read-out: percent viability. As to the method:
as §1, §2, §3

As to `CCOC(=O)NN(C(=O)OCC)c1c2ccccc2cc2ccccc12` [FX23], the IC50 in data set [1] (Homo sapiens, U-937, 20 min, U937 cells exposed to light and the photosensitizer for 20 minutes, read-out: VC50/20 (concentration at which 50% decrease in cell viability is observed)) came to 0.13 ± 0.03 µM. Also, the “cell viability result in words” value in data set [1] is “concentration-dependent and light exposure time-dependent decrease in cell viability”. Further, the percent viability was 78% in data set [1] (0.16 μM photosensitizer, light exposure 5 minutes (325-425 nm lamp), viability 24 h after exposure); 40% in data set [1] (0.16 μM photosensitizer, light exposure 10 minutes); 40% in data set [1] (0.16 μM photosensitizer, light exposure 20 minutes); 41% in data set [1] (0.32 μM photosensitizer, light exposure 5 minutes); 5% in data set [1] (0.32 μM photosensitizer, light exposure 10 minutes); 5% in data set [1] (0.32 μM photosensitizer, light exposure 20 minutes). Also, the percent viability in data set [1] (0.63 μM photosensitizer, light exposure 5 minutes) is 5%; in data set [1] (0.63 μM photosensitizer, light exposure 10 minutes), 5%; in data set [1] (0.63 μM photosensitizer, light exposure 20 minutes), 4%. The “absorption maxima (λmax)” value in data set [2] is 385 nm.
Usually viability stands for a per cent measure of how many cells are alive, often set against a control. For `COc1cc(OC)c(/C=N/Nc2c3ccccc3nc3ccccc23)c(OC)c1` [FX25], the viability at 10 μM in data set [3] is 60%. The “cell viability result in words” value in data set [1] was “concentration-dependent and light exposure time-dependent decrease in cell viability”. For the same compound, the percent viability turned out to be 100% in data set [1] (1.25 μM photosensitizer, light exposure 10 minutes); 100% in data set [1] (1.25 μM photosensitizer, light exposure 20 minutes); 65% in data set [1] (5.0 μM photosensitizer, light exposure 10 minutes); 10% in data set [1] (5.0 μM photosensitizer, light exposure 20 minutes); 40% in data set [1] (10.0 μM photosensitizer, light exposure 10 minutes); 4% in data set [1] (10.0 μM photosensitizer, light exposure 20 minutes).
